ChEMBL document CHEMBL4831504, “Rearranged Diels-Alder Adducts and Prenylated Flavonoids as Potential PTP1B Inhibitors from Morus nigra” (J Nat Prod, 2021)

Key:
[1] = molecular target: T1, Tyrosine-protein phosphatase non-receptor type 1 (Homo sapiens) (UniProt P18031); experiment: Inhibition of recombinant PTP1B catalytic domain (unknown origin) assessed as reduction in pNP formation using pNPP as substrate at 20 ug/ml by absorbance based analysis relative to control; conditions: dose 20.0 µg/ml
T1 sequence (whole entry): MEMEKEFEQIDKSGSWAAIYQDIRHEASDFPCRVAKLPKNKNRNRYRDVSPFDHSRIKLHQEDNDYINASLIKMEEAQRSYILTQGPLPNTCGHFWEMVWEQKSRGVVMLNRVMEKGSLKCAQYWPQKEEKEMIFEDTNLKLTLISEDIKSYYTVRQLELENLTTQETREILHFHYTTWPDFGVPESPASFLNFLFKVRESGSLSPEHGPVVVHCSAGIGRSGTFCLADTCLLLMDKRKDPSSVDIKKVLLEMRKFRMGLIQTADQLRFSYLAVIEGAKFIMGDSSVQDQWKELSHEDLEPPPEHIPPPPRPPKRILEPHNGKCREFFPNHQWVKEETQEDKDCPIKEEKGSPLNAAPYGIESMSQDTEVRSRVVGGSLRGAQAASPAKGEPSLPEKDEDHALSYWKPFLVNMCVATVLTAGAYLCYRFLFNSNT

[2] = molecular target: T2, Tyrosine-protein phosphatase non-receptor type 1 (Homo sapiens, UniProt P18031); experiment: Inhibition of recombinant PTP1B catalytic domain (unknown origin) assessed as reduction in pNP formation using pNPP as substrate by absorbance based analysis
T2 sequence (P18031 whole entry): T1 sequence (whole entry)

Row | Compound | inhibition [1] [%] | IC50 [2] [µM]
1 | CC(C)=CCc1c(O)ccc(C(=O)Oc2cc(-c3cc4ccc(O)cc4o3)cc(O)c2-c2cc(C)cc(-c3ccc(O)cc3O)c2)c1O | 99.2 | 1.3
2 | CC(C)=CCc1c(O)cc(-c2cc3ccc(O)cc3o2)cc1O [MORACIN C] | 90.6 | 10.2
3 | CC(C)=CCc1c(-c2ccc(O)cc2O)oc2c3c(cc(O)c2c1=O)OC(C)(C)C=C3 [MORUSIN] | 71.5 | 22.1
4 | CC(C)=CCc1cc(-c2oc3cc(O)cc(O)c3c(=O)c2CC=C(C)C)c(O)cc1O | 77.6 | 12.5
5 | CC(C)=C[C@H]1Oc2cc(O)ccc2-c2oc3cc(O)ccc3c(=O)c21 | 45.4 | ≥ 50
6 | CC(C)=CCc1c(-c2ccc(O)cc2O)oc2cc3c(c(O)c2c1=O)C=CC(C)(C)O3 [CUDRAFLAVONE B] | 70.9 | 20
7 | CC1(C)Oc2cc3oc(-c4cc(O)cc(O)c4)cc3cc2CC1O (stereo not drawn) [(+/-)-MORACIN P] | 39.1 | ≥ 50
8 | CC(C)=CCc1c(O)ccc(C(=O)Oc2cc(/C=C/c3ccc(O)cc3O)cc(O)c2-c2cc(C)cc(-c3ccc(O)cc3O)c2)c1O | 97 | 1.8
9 | CC(C)=CCc1cc(-c2oc3c(CC=C(C)C)c(O)cc(O)c3c(=O)c2CC=C(C)C)c(O)cc1O | 93.3 | 7.7
10 | CC(C)=CCC/C(C)=C/Cc1c(O)cc(O)c2c(=O)c(CC=C(C)C)c(-c3ccc(O)cc3O)oc12 | 95.8 | 5.3
